Measured values as given in ChEMBL document CHEMBL5625161, “Pharmacological activity and mechanism of pyrazines” (Eur J Med Chem, 2023).
Each block holds one compound with its values, some of them ahead of it.

Assays:
[1] = molecular target: Mitogen-activated protein kinase 6 (Homo sapiens, UniProt Q16659); assay: Inhibition of ERK3 (unknown origin)
[2] = molecular target: Mitogen-activated protein kinase 1 (Homo sapiens, UniProt P28482); assay: Inhibition of ERK2 (unknown origin)
[3] = molecular target: Mitogen-activated protein kinase 3 (Homo sapiens, UniProt P27361); assay: Inhibition of ERK1 (unknown origin)
Sequence of Mitogen-activated protein kinase 3 (P27361 whole entry): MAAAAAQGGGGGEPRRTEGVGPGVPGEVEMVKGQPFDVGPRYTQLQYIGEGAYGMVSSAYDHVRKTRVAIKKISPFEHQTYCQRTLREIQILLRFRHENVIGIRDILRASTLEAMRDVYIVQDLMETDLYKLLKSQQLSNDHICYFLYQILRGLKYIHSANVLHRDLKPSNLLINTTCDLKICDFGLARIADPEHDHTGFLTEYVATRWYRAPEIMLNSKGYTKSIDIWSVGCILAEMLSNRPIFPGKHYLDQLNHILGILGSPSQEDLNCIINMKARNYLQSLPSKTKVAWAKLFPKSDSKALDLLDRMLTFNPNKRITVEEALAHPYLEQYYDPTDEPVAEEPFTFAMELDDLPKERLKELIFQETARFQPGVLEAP

[4] = tested on: CCRF-CEM; assay: Antiproliferative activity against human CEM cells assessed as reduction in cell viability measured after 3 to 4 days by MTT assay; format: functional, cell-based
[5] = tested on: SW-620; assay: Antiproliferative activity against human SW-620 cells assessed as reduction in cell growth measured after 3 to 4 days by MTT assay; format: functional, cell-based
[6] = tested on: A549; assay: Antiproliferative activity against human A549 cells assessed as reduction in cell viability measured after 3 to 4 days by MTT assay; format: functional, cell-based
[7] = Antiproliferative activity against human WI-38 cells assessed as reduction in cell growth measured after 3 to 4 days by MTT assay; format: toxicity, cell-based
[8] = tested on: HeLa; assay: Antiproliferative activity against human HeLa cells assessed as reduction in cell viability measured after 3 to 4 days by MTT assay; format: functional, cell-based
[9] = tested on: MCF7; assay: Antiproliferative activity against human MCF7 cells assessed as reduction in cell growth measured after 3 to 4 days by MTT assay; format: functional, cell-based
[10] = Antiproliferative activity against human Molt 4/C8 cells assessed as reduction in cell growth measured after 3 to 4 days by MTT assay; format: functional, cell-based; details: Molt4/C8
[11] = tested on: HepG2; assay: Antiproliferative activity against human HepG2 cells assessed as reduction in cell viability measured after 3 to 4 days by MTT assay; format: functional, cell-based
[12] = tested on: L1210; assay: Antiproliferative activity against mouse L1210 cells assessed as reduction in cell viability measured after 3 to 4 days by MTT assay; format: functional, cell-based
[13] = tested on: LOX IMVI; assay: Cytotoxicity against human LOX IMVI cells assessed as cell growth inhibition at 10 uM measured after 48 hrs by SRB assay relative to control; format: functional; set-up: scale not given: the % may be the effect or the level left
[14] = tested on: SNB-75; assay: Cytotoxicity against human SNB-75 cells assessed as cell growth inhibition at 10 uM measured after 48 hrs by SRB assay relative to control; format: functional; set-up: scale not given: the % may be the effect or the level left
[15] = tested on: PC-3; assay: Cytotoxicity against human PC-3 cells assessed as cell growth inhibition at 10 uM measured after 48 hrs by SRB assay relative to control; format: functional; set-up: scale not given: the % may be the effect or the level left
[16] = tested on: A549; assay: Cytotoxicity against human A549 cells assessed as cell growth inhibition at 10 uM measured after 48 hrs by SRB assay relative to control; format: functional; set-up: scale not given: the % may be the effect or the level left
[17] = tested on: MDA-MB-231; assay: Cytotoxicity against human MDA-MB-231 cells assessed as cell growth inhibition at 10 uM measured after 48 hrs by SRB assay relative to control; format: functional; set-up: scale not given: the % may be the effect or the level left
[18] = tested on: HT-29; assay: Antiproliferative activity against human HT-29 cells assessed as reduction in cell viability incubated for 72 hrs by MTT assay; format: functional, cell-based; details: HT-29, 72 h
[19] = tested on: SW-620; assay: Antiproliferative activity against human SW620 cells assessed as reduction in cell viability incubated for 72 hrs by MTT assay; format: functional, cell-based; details: SW-620, 72 h
[20] = tested on: HCT-116; assay: Antiproliferative activity against human HCT-116 cells assessed as reduction in cell viability incubated for 72 hrs by MTT assay; format: functional, cell-based; details: HCT-116, 72 h
[21] = tested on: CCRF-CEM; assay: Growth inhibition of human CCRF-CEM cells; format: functional, cell-based; details: pooled result: one value given for 60 cell lines, strains, targets or settings
[22] = tested on: Huh-7; assay: Antiproliferative activity against human Huh-7 cells assessed as reduction in cell viability incubated for 48 hrs by MTT assay; format: functional, cell-based; details: Huh-7, 48 h
[23] = tested on: BJ; assay: Cytotoxicity against human BJ cells assessed as cell growth inhibition measured after 72 hrs by Celltiter-Glo assay; format: functional, cell-based
[24] = tested on: LN-229; assay: Cytotoxicity against human LN-229 cells assessed as reduction in cell growth incubated for 72 hrs by Celltiter-Glo assay; format: functional, cell-based; details: LN-229, 72 h
[25] = tested on: A-375; assay: Antiproliferative activity against human A-375 cells assessed as reduction in cell growth by MTT assay; format: functional, cell-based
[26] = tested on: MIA PaCa-2; assay: Antiproliferative activity against human MIA PaCa-2 cells assessed as reduction in cell growth by MTT assay; format: functional, cell-based
[27] = tested on: MCF7; assay: Antiproliferative activity against human MCF7 cells assessed as reduction in cell growth by MTT assay; format: functional, cell-based
[28] = tested on: BGC-823; assay: Antiproliferative activity against human BGC-823 cells assessed as reduction in cell growth by MTT assay; format: functional, cell-based
[29] = tested on: HCT-116; assay: Antiproliferative activity against human HCT-116 cells assessed as reduction in cell growth by MTT assay; format: functional, cell-based
[30] = tested on: KG-1; assay: Antiproliferative activity against human KG-1 cells assessed as reduction in cell viability incubated for 72 hrs by MTT assay; format: functional, cell-based; details: KG-1, 72 h
[31] = Cytotoxicity against mouse HL-1 cells assessed as cell viability incubated for 24 hrs by CytoTox-Glo luminescence assay relative to control; format: toxicity, cell-based
[32] = tested on: A549; assay: Antiproliferative activity against human A549 cells assessed as inhibition of cell growth at 10 uM relative to control; format: functional; set-up: scale not given: the % may be the effect or the level left
[33] = tested on: KG-1; assay: Antiproliferative activity against FGFR1-translocated human KG-1 cells assessed as reduction in cell viability incubated for 72 hrs by CCK-8 assay; format: functional, cell-based; details: KG-1, 72 h
[34] = molecular target: Fibroblast growth factor receptor 1 (Homo sapiens, UniProt P11362); assay: Inhibition of human recombinant FGFR1 (461 to 768 residues) expressed in Escherichia coli BL21 Gold(DE3) cells by spectrophotometer method
Sequence of Fibroblast growth factor receptor 1 (P11362 whole entry, the tested form may be a part): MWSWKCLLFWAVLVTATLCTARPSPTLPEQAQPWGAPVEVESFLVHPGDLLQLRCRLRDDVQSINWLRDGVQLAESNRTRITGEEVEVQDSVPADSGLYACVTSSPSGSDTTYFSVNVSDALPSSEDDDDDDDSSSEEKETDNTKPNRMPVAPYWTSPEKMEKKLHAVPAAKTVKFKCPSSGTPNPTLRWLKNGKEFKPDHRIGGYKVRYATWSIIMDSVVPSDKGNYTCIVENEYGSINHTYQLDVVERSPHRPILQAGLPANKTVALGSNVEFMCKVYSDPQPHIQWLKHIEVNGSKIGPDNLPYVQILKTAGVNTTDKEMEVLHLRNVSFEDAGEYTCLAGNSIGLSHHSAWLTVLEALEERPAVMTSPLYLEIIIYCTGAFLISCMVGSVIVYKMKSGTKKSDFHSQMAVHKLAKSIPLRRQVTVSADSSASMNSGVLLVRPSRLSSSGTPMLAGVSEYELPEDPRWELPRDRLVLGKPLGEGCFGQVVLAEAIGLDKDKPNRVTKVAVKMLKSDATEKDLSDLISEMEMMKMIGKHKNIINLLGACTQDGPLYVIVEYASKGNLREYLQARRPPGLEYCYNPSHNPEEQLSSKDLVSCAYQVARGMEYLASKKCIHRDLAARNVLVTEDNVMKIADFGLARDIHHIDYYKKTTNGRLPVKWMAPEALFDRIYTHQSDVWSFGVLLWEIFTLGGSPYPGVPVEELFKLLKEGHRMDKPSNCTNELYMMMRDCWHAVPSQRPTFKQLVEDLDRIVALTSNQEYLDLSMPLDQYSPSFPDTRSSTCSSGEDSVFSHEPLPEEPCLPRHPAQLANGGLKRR

[35] = tested on: DU-145; assay: Antiproliferative activity against human DU-145 cells assessed as reduction in cell growth incubated for 48 hrs by CCK-8 assay; format: functional, cell-based; details: DU-145, 48 h
[36] = tested on: MCF7; assay: Antiproliferative activity against human MCF7 cells assessed as reduction in cell growth incubated for 48 hrs by CCK-8 assay; format: functional, cell-based; details: MCF7, 48 h
[37] = tested on: NCI-H460; assay: Antiproliferative activity against human NCI-H460 cells assessed as reduction in cell growth incubated for 48 hrs by CCK-8 assay; format: functional, cell-based; details: NCI-H460, 48 h

Sequence of Mitogen-activated protein kinase 1 (P28482 whole entry): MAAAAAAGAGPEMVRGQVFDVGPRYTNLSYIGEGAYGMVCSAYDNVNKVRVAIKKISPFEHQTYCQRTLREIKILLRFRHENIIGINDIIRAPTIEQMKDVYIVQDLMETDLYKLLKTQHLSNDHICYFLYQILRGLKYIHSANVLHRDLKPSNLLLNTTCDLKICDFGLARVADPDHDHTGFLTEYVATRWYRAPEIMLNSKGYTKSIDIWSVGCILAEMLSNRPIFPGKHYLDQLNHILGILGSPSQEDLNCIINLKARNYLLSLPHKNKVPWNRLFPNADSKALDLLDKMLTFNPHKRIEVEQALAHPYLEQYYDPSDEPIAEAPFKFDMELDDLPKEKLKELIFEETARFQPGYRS
Sequence of Mitogen-activated protein kinase 6 (Q16659 whole entry): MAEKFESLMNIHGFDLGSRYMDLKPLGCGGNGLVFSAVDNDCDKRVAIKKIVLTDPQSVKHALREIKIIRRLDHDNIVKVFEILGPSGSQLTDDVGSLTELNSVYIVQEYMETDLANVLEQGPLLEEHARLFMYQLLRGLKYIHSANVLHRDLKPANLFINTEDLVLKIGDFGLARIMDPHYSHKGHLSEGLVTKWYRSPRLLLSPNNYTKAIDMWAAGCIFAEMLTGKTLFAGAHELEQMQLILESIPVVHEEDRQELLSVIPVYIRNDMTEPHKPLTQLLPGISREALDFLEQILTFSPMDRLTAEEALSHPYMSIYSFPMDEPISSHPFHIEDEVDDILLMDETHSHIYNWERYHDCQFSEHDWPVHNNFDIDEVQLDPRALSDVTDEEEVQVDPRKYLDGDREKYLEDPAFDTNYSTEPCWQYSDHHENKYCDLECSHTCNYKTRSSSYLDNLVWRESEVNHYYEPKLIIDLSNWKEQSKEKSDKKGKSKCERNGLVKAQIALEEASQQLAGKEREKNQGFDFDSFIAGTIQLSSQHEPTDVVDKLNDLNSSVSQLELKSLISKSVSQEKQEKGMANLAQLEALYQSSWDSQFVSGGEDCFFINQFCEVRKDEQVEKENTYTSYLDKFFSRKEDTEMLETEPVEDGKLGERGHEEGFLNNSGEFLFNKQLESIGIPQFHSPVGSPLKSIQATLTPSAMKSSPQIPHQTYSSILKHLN

IC50 [1]: 210 nM
IC50 [2]: 210 nM
IC50 [3]: 210 nM
Structure (SMILES): CN1CCN([C@H]2C[C@@H](c3nc(-c4ccc5ccc(-c6ccccc6)nc5c4)c4c(N)nccn43)C2)CC1

IC50 [4]: > 250000 nM
IC50 [5]: 39600 nM
IC50 [6]: 900 nM
IC50 [8]: 600 nM
IC50 [9]: > 250000 nM
IC50 [11]: 700 nM
IC50 [12]: 87000 nM
Structure (SMILES): O=C(Nc1ccc(Br)cc1)Nc1ccc(Oc2cnc(C(=O)NC3CCCC3)cn2)cc1
IC50 [7]: > 100000 nM
IC50 [10]: > 250000 nM

Structure (SMILES): COc1ccc(-c2cn3c(-c4ccc(OC)cc4)cnc3c(Oc3ccc4c(C)cc(=O)oc4c3)n2)cc1
Activity [13]: 91.98%
Activity [14]: 85.69%
Activity [15]: 83.52%
Activity [16]: 83.52%
Activity [17]: 93.71%

IC50 [18]: 19 nM
Structure (SMILES): CNCc1ccc(-c2cc(-c3nc(-c4ccc(S(=O)(=O)C(C)C)cc4)cnc3N)on2)cc1 [BERZOSERTIB]

IC50 [19]: 1800 nM
IC50 [20]: 1300 nM
Structure (SMILES): O=C(Nc1ccc2ccccc2c1)c1c(Cc2ccccc2)n2nc3ccccc3c2c(=O)n1C1CC1

IC50 [21]: 810 nM
Structure (SMILES): c1cn2cc(-c3ccc4ncn(C5CCCCC5)c4c3)nc(-c3ccc4ncn(C5CCCCC5)c4c3)c2n1

IC50 [22]: 12800 nM
Structure (SMILES): N=C(NC(=O)c1nc(Cl)c(N)nc1N)NC(=O)c1c(Cl)cccc1Cl

Structure (SMILES): N#Cc1cncc(Cl)n1
IC50 [23]: 95700 nM
IC50 [24]: 18200 nM

IC50 [25]: 2290 nM
IC50 [26]: 6740 nM
IC50 [27]: 5580 nM
IC50 [28]: 4150 nM
IC50 [29]: 10200 nM
Structure (SMILES): COc1ccc(OCCN2CCn3nnc(-c4cc(C(C)C)c(O)cc4O)c3C2)cc1

Structure (SMILES): O=S(=O)(c1cn(CCF)cn1)n1ccc2ncc(-c3cn[nH]c3)nc21
IC50 [30]: 29.1 nM

Structure (SMILES): S=C(N/N=C(\c1ccccc1)c1ccccn1)Nc1ccccc1
IC50 at 24 h [31]: 1430 nM

Structure (SMILES): Cc1cc(=O)oc2cc(Oc3nc(-c4ccc(Cl)cc4)cn4c(-c5ccc(Cl)cc5)cnc34)ccc12
Activity [32]: 90.12%

IC50 [34]: 600 nM
Structure (SMILES): COc1cc(OC)c(F)c(/C=C/c2cnc3c(n2)N(S(=O)(=O)c2cn(CCF)cn2)CC3)c1F
IC50 [33]: 0.5 nM

Structure (SMILES): C[C@@H]1[C@]2(O[C@H]3C=C4[C@@H]5CC[C@H]6Cc7nc8c(nc7C[C@]6(C)[C@H]5C[C@@H](O)[C@]4(C)[C@]31O)C[C@@H]1CC[C@H]3C4=CC[C@@H]5[C@H](C)[C@@]6(OC[C@]45C(=O)C[C@@H]3[C@@]1(C)C8)OC(C)(C)C[C@H]6O)O[C@](C)(CO)C[C@H]2O [CEPHALOSTATIN 1]
IC50 [35]: 0.11 nM
IC50 [36]: 0.099 nM
IC50 [37]: 0.044 nM
